Measurements: patent US20190070124A1, “COMPOSITIONS OF CB2 RECEPTOR SELECTIVE AGONISTS FOR TREATMENT OF MENTAL DISORDERS” (priority 2016, published 2019)

Test system: murine model of schizophrenia
Assay: Social interaction test in a novel environment, PCP mouse model
Format: in vivo, mice
Conditions: PND 88-89; postnatal PCP 5 mg/kg; oral BCP 10 mg/kg twice a week, PND 43-62
Experimental: BCP was diluted in canola oil. BCP (10 mg/kg diluted in canola oil) was administered to adolescent mice (PND 43-62) by gavage twice a week (on Sunday and Wednesday) for 3 weeks, a total of 6 gavages. Control group and PCP-induced group received by gavage the oil vehicle.
Each mouse was placed in a novel cage together with a nonaggressive intruder mouse of the same species, same sex and a similar age. The interaction between the two mice was recorded for 10 minutes with EthoVision software (Noldus). Social interaction was defined by contact between the mice (tracking nose point). Reduced duration of contact behavior indicates on impairment in social interaction.

trans-(1R,9S)-8-methylene-4,11,11trimethylbicyclo[7.2.0]undec-4-ene [BCP]
social interaction, male mice: reversed the effect of 5 mg/kg PCP on social interaction of male mice in the social interaction test
